What was measured:
Flashpoint = type: physicochemical
[1] = NOACK vaporization (physical vaporization according to Noack, 250° C. for 1 h); type: physicochemical
From the text: Trimethylolpropane esters (TMP-C8/C10) are commercially available from various suppliers and have been used for comparative purposes.

Viscosity index (VI) = type: physicochemical
Pour point = type: physicochemical
From the text: In addition, the inventive ester oils have a high flashpoint, such that use at relatively high oil sump and component temperatures is possible without risk. In addition, the pour point of the ester oils is relatively low, as a result of which the esters are also usable at low temperatures. For a liquid product, the pour point denotes the temperature at which it is still just free-flowing in the course of cooling. Thus, the inventive ester oils can be used within a broad temperature range.

Kinematic viscosity = type: physicochemical
Density = type: physicochemical; settings: Table 3
[2] = Cold Crank Simulator according to ASTM D5293; type: physicochemical
Procedure: (§1) For the C12D13 esters and the C10D13 esters, three independently prepared samples were included in each case. For the C9D13 ester and for the D5C18 ester, one sample was analyzed in each case. The “CCS−25° C. [mPas]” and “CCS−20° C. [mPas]” columns each contain figures for the “Cold Crank Simulator” according to the standard ASTM D5293 at −25° C. and −20° C. The HTHS150° C. [mPas] column indicates what is called the “High-Temperature High-Shear Viscosity” (HTHS) at elevated temperature.

[3] = High-Temperature High-Shear Viscosity (HTHS); type: physicochemical; settings: 150° C.
Procedure: as §1

[4] = taken from safety data sheets; cited from earlier work
[5] = taken from safety data sheets; cited from earlier work; remark: listed apart in the source
[6] = UBA number 4203; cited from earlier work
[7] = Table 3, listed as C12D13 (1st sample)
[8] = Table 3, listed as C12D13 (2nd sample)
[9] = Table 3, listed as C12D13 (3rd sample)

## CC(C)CCCCCCCCCCOC(=O)CCCCCCCCCCC(=O)OCCCCCCCCCCC(C)C [C12D13, di(isotridecyl)dodecanedioate]
Flashpoint; Table 2, base oil
  Flashpoint: 277 °C
Flashpoint; [7]
  Flashpoint: 276 °C
Flashpoint; [8]
  Flashpoint: 277 °C
Flashpoint; [9]
  Flashpoint: 261 °C
[1]; Table 2, base oil
  NOACK: 5.7%
[1]; Table 3, 250° C. for 1 h, listed as C12D13 (1st sample)
  NOACK: 2.4%
[1]; Table 3, 250° C. for 1 h, listed as C12D13 (2nd sample)
  NOACK: 4.3%
[1]; Table 3, 250° C. for 1 h, listed as C12D13 (3rd sample)
  NOACK: 2.9%
Viscosity index (VI); Table 2, base oil
  VI: 158
Viscosity index (VI); [7]
  VI: 158
Viscosity index (VI); [8]
  VI: 147
Viscosity index (VI); [9]
  VI: 156
Pour point; Table 2, base oil
  Pour point: −57 °C
Pour point; [7]
  Pour point: −48 °C
Pour point; [8]
  Pour point: −57 °C
Pour point; [9]
  Pour point: −51 °C
Kinematic viscosity; Table 2, 40° C.
  η40° C.: 42.0 mm^2/s
Kinematic viscosity; Table 2, 100° C.
  η100° C.: 7.5 mm^2/s
Kinematic viscosity; Table 3, 40° C., listed as C12D13 (1st sample)
  η40° C.: 40.47 mm^2/s
Kinematic viscosity; Table 3, 40° C., listed as C12D13 (2nd sample)
  η40° C.: 42.0 mm^2/s
Kinematic viscosity; Table 3, 40° C., listed as C12D13 (3rd sample)
  η40° C.: 41.2 mm^2/s
Kinematic viscosity; Table 3, 100° C., listed as C12D13 (1st sample)
  η100° C.: 7.573 mm^2/s
Kinematic viscosity; Table 3, 100° C., listed as C12D13 (2nd sample)
  η100° C.: 7.5 mm^2/s
Kinematic viscosity; Table 3, 100° C., listed as C12D13 (3rd sample)
  η100° C.: 7.6 mm^2/s
Kinematic viscosity; Table 3, 150° C.
  η150° C.: 3.45 mm²/s
Density; listed as C12D13 (1st sample)
  Density: 0.9051 g/mL
Density; listed as C12D13 (2nd sample)
  Density: 0.9020 g/mL
Density; listed as C12D13 (3rd sample)
  Density: 0.904 g/mL
[2]; listed as C12D13 (1st sample)
  CCS−20° C.: 1910 mPas
  CCS−25° C.: 3210 mPas
[2]; listed as C12D13 (2nd sample)
  CCS−20° C.: 1700 mPas
[2]; listed as C12D13 (3rd sample)
  CCS−25° C.: 3230 mPas
[3]
  HTHS150° C.: 2.7 mPa·s
[4]
  Aquatic toxicity OECD 202: 880 mg/L
[5]
  Aquatic toxicity OECD 203: >1000 mg/L
[6]
  water endangerment class (WGK): WGK 1
